What all share (assay type): cell-based, human
Experiment [1] deals with HTT mRNA. In words: RT-qPCR splicing assay, HTT canonical (CJ) and alternative (AJ) junction mRNA. The settings on record: for AC50: read-out: HTT AJ (AC50, increase in AJ mRNA). Put shortly: (§1)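 A673 (DMEM/10% FBS) or K562 (IMDM/10% FBS) cells treated 24 h at 37 °C with 11-point 3-fold dilutions, top 10 uM final, DMSO ≤0.25%. Lysates read by one-step RT-qPCR for CJ and AJ isoforms, normalized to GAPDH, GUSB or PPIA. ΔΔCt vs DMSO gives RQ via 2^(-ΔΔCt).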
A general note: In qPCR the cycle at which signal appears reflects the starting amount.

Experiment [2] concerns MYB mRNA. In words: RT-qPCR splicing assay, MYB canonical (CJ) and alternative (AJ) junction mRNA. Conditions: for AC50: read-out: MYB AJ (AC50, increase in AJ mRNA). The method in brief:
as §1

Experiment [3] has as its system SMN2 mRNA. In words: RT-qPCR splicing assay panel, SMN2 canonical junction (CJ) mRNA. The method in brief:
as §1

For experiment [4], the system named is Target C mRNA. In words: RT-qPCR splicing assay panel, Target C canonical junction (CJ) mRNA. The method in brief: as §1
Where [5] appears, read: Homo sapiens, 24 h, Table 3A, A673 or K562 cells, 24 h treatment.
Setting [6] is: Homo sapiens, 24 h, Table 3A, A673 or K562 cells, 24 h treatment, read-out: HTT CJ (IC50, decrease in CJ mRNA).
Setting [7] is: Homo sapiens, canonical junction (CJ) mRNA, RT-qPCR panel, Table 4A, read-out: HTT, decrease in CJ mRNA levels, IC50.
The mark [8] stands for this setting: Homo sapiens, 24 h, Table 3A, A673 or K562 cells, 24 h treatment, read-out: MYB CJ (IC50, decrease in CJ mRNA).
[9] abbreviates: Homo sapiens, canonical junction (CJ) mRNA, RT-qPCR panel, Table 4A, read-out: MYB, decrease in CJ mRNA levels, IC50.
Where [10] appears, read: Homo sapiens, canonical junction (CJ) mRNA, RT-qPCR panel, Table 4A, read-out: SMN2, decrease in CJ mRNA levels, IC50.
Where [11] appears, read: Homo sapiens, canonical junction (CJ) mRNA, RT-qPCR panel, Table 4A, read-out: Target C, decrease in CJ mRNA levels, IC50.
The mark [12] stands for this setting: Homo sapiens, 24 h, Table 3B, A673 or K562 cells, 24 h treatment.
The mark [13] stands for this setting: Table 3A, A673 or K562 cells, 24 h treatment.

Read-outs that look alike come from different tables or passages of the source.

For the compound `Oc1cc(-c2cnn3c2CCC3)c(F)cc1-c1ccc(N2CCC(NC3CCC3)C2)nn1` (stereo not drawn) [Compound 443], the AC50 in experiment [1] (setting [5]) was 1 to 10 µM; in experiment [2] (setting [5]) it was above 10 µM. Also, the IC50 in experiment [1] (setting [6]) is 1 to 10 µM; in experiment [1] (setting [7]), 1 to 10 µM; in experiment [2] (setting [8]) it was above 10 µM; in experiment [2] (setting [9]) it was above 10 µM; in experiment [3] (setting [10]), 1 to 10 µM; in experiment [4] (setting [11]), above 10 µM.

For `COc1cc(-c2ccc(-c3ccc(N4CC[C@H](NCC5CC5)C4)nn3)c(O)c2)ncn1` [Compound 381, 2-{6-[(3S)-3-[(cyclopropylmethyl)amino]pyrrolidin-1-yl]pyridazin-3-yl}-5-(6-methoxypyrimidin-4-yl)phenol], the AC50 in experiment [1] (setting [5]) and in experiment [2] (setting [5]) was 0.1 to 1 µM in each case. In addition, the IC50 in experiment [1] (setting [6]) was below 0.1 µM; in experiment [1] (setting [7]) it was below 0.1 µM; in experiment [2] (setting [8]), 0.1 to 1 µM; in experiment [2] (setting [9]), 0.1 to 1 µM; in experiment [3] (setting [10]), below 0.1 µM; in experiment [4] (setting [11]), 0.1 to 1 µM.

With `Cc1nc2cc(O)c(-c3cnc(N4CC[C@@H](N(C)C(C)(C)C)C4)nn3)cc2o1` [Compound 856], the AC50 in experiment [1] (setting [12]) and in experiment [2] (setting [12]) was 1 to 10 µM throughout. Also, the 50% inhibitory concentration (IC50) in experiment [1] (Homo sapiens, 24 h, Table 3B, A673 or K562 cells, 24 h treatment, read-out: HTT CJ (IC50, decrease in CJ mRNA)) lay within 0.1 to 1 µM; in experiment [1] (Homo sapiens, Table 4B, gene panel, read-out: HTT (IC50, decrease in CJ mRNA levels)) it was 0.1 to 1 µM; in experiment [2] (Homo sapiens, 24 h, Table 3B, A673 or K562 cells, 24 h treatment, read-out: MYB CJ (IC50, decrease in CJ mRNA)) it was 1 to 10 µM; in experiment [2] (Homo sapiens, Table 4B, gene panel, read-out: MYB (IC50, decrease in CJ mRNA levels)) it was 1 to 10 µM; in experiment [3] (Homo sapiens, Table 4B, gene panel, read-out: SMN2 (IC50, decrease in CJ mRNA levels)) it was 0.1 to 1 µM; in experiment [4] (Homo sapiens, Table 4B, gene panel, read-out: Target C (IC50, decrease in CJ mRNA levels)), 1 to 10 µM.

For the compound `COc1cc(-c2ccc(-c3ccc(N4CC[C@H](NC(C)(C)C)C4)nn3)c(O)c2)cnn1` [Compound 210, 2-{6-[(3S)-3-(tert-butylamino)pyrrolidin-1-yl]pyridazin-3-yl}-5-(6-methoxypyridazin-4-yl)phenol], the concentration at half-maximal activity (AC50) in experiment [1] (setting [5]) and in experiment [2] (setting [5]) was below 0.1 µM each time. In addition, the concentration for half-maximal inhibition (IC50) in experiment [1] (setting [6]), in experiment [1] (setting [7]), in experiment [2] (setting [8]), in experiment [2] (setting [9]), in experiment [3] (setting [10]) and in experiment [4] (setting [11]) was below 0.1 µM throughout.

Take `COc1cc(-c2ccc(-c3ccc(N4CC[C@@H](NC5CC5)C4)nn3)c(O)c2)cnn1` [Compound 216, 2-{6-[(3R)-3-(cyclopropylamino)pyrrolidin-1-yl]pyridazin-3-yl}-5-(6-methoxypyridazin-4-yl)phenol]: the half-maximal activity concentration (AC50) in experiment [1] (setting [5]) and in experiment [2] (setting [5]) was 0.1 to 1 µM throughout. The half-maximal inhibitory concentration (IC50) in experiment [1] (setting [6]) was below 0.1 µM; in experiment [1] (setting [7]) it was below 0.1 µM; in experiment [2] (setting [8]) it was 0.1 to 1 µM; in experiment [2] (setting [9]), 0.1 to 1 µM; in experiment [3] (setting [10]) it was below 0.1 µM; in experiment [4] (setting [11]), 0.1 to 1 µM.

As to `CCc1ncc(-c2cc(O)c(-c3ccc(N4CCC(NC5CCC5)C4)nn3)cc2F)s1` (stereo not drawn) [Compound 442], the AC50 was 1 to 10 µM in experiment [1] (setting [5]) and above 10 µM in experiment [2] (setting [5]). The IC50 was above 10 µM in experiment [1] (setting [6]); above 10 µM in experiment [1] (setting [7]); above 10 µM in experiment [2] (setting [8]); above 10 µM in experiment [2] (setting [9]); 1 to 10 µM in experiment [3] (setting [10]); above 10 µM in experiment [4] (setting [11]).

Take `CN(C1CCN(c2ccc(-c3cc(F)c(-c4cn[nH]c4)cc3O)nn2)C1)C(C)(C)C` (stereo in doubt) [Compound 119, 2-{6-[(3S)-3-[tert-butyl(methyl)amino]pyrrolidin-1-yl]pyridazin-3-yl}-4-fluoro-5-(1H-pyrazol-4-yl)phenol]: the AC50 in experiment [1] (setting [5]) and in experiment [2] (setting [5]) was below 0.1 µM in each case. Further, the IC50 in experiment [1] (setting [6]), in experiment [1] (setting [7]), in experiment [2] (setting [8]), in experiment [2] (setting [9]), in experiment [3] (setting [10]) and in experiment [4] (setting [11]) was below 0.1 µM each time.

Turning to `Cc1nnc(-c2cc(O)c(-c3ccc(N4CC[C@H](NC5CCC5)C4)nn3)cc2F)s1` [Compound 358], the concentration at half-maximal activity (AC50) in experiment [1] (setting [5]) and in experiment [2] (setting [5]) was 1 to 10 µM each time. The IC50 is 0.1 to 1 µM in experiment [1] (setting [6]); 0.1 to 1 µM in experiment [1] (setting [7]); 1 to 10 µM in experiment [2] (setting [8]); 1 to 10 µM in experiment [2] (setting [9]); 0.1 to 1 µM in experiment [3] (setting [10]); 1 to 10 µM in experiment [4] (setting [11]).

For `COc1cc(-c2ccc(-c3ccc(N4CC[C@H](N[C@H]5C[C@@H](F)C5)C4)nn3)c(O)c2)ncn1` [Compound 407, 5-(6-methoxypyrimidin-4-yl)-2-{6-[(3R)-3-{[(1s,3s)-3-fluorocyclobutyl]amino}pyrrolidin-1-yl]pyridazin-3-yl}phenol], the AC50 in experiment [1] (setting [5]) and in experiment [2] (setting [5]) was 0.1 to 1 µM each time. In addition, the concentration for half-maximal inhibition (IC50) in experiment [1] (setting [6]), in experiment [1] (setting [7]), in experiment [2] (setting [8]), in experiment [2] (setting [9]), in experiment [3] (setting [10]) and in experiment [4] (setting [11]) was 0.1 to 1 µM each time.

In the case of `CN(C)c1cc(-c2ccc(-c3ccc(N4CCC(NC5CCC5)C4)nn3)c(O)c2)cnn1` (stereo not drawn) [Compound 409], the AC50 in experiment [1] (setting [5]) and in experiment [2] (setting [5]) was above 10 µM each time. Also, the IC50 in experiment [1] (setting [6]), in experiment [1] (setting [7]), in experiment [2] (setting [8]), in experiment [2] (setting [9]), in experiment [3] (setting [10]) and in experiment [4] (setting [11]) was above 10 µM throughout.

As for `COc1cc(-c2ccc(-c3ccc(N4CCC(NC5CCC5)C4)nn3)c(O)c2)c(F)cn1` (stereo not drawn) [Compound 307], the AC50 in experiment [1] (setting [5]) is 1 to 10 µM; in experiment [2] (setting [5]), above 10 µM. Moreover, the IC50 is 1 to 10 µM in experiment [1] (setting [6]); 1 to 10 µM in experiment [1] (setting [7]); above 10 µM in experiment [2] (setting [8]); above 10 µM in experiment [2] (setting [9]); 1 to 10 µM in experiment [3] (setting [10]); above 10 µM in experiment [4] (setting [11]).

On to `Cc1ncc(-c2ccc(-c3ccc(N4CC[C@@](C)(NC5CCC5)C4)nn3)c(O)c2)s1` [Compound 356], for which the half-maximal activity concentration (AC50) is below 0.1 µM in experiment [1] (setting [5]) and 0.1 to 1 µM in experiment [2] (setting [5]). Besides, the IC50 in experiment [1] (setting [6]) was below 0.1 µM; in experiment [1] (setting [7]) it was below 0.1 µM; in experiment [2] (setting [8]) it was 0.1 to 1 µM; in experiment [2] (setting [9]) it was 0.1 to 1 µM; in experiment [3] (setting [10]), below 0.1 µM; in experiment [4] (setting [11]), 0.1 to 1 µM.

For the compound `CC(=O)c1cc(-c2ccc(-c3ccc(N4CCC(NC5CCC5)C4)nn3)c(O)c2)cnn1` (stereo not drawn) [Compound 445], the AC50 in experiment [1] (setting [5]) and in experiment [2] (setting [5]) was above 10 µM in each case. Besides, the IC50 in experiment [1] (setting [6]), in experiment [1] (setting [7]), in experiment [2] (setting [8]), in experiment [2] (setting [9]), in experiment [3] (setting [10]) and in experiment [4] (setting [11]) was above 10 µM throughout.

Regarding `O=c1cc(-c2cc(O)c(-c3ccc(N4CC[C@@H](NC5CCC5)C4)nn3)cc2F)cc[nH]1` [Compound 220, 4-(4-{6-[(3R)-3-(cyclobutylamino)pyrrolidin-1-yl]pyridazin-3-yl}-2-fluoro-5-hydroxyphenyl)-1H-pyridin-2-one], the concentration at half-maximal activity (AC50) in experiment [1] (setting [5]) and in experiment [2] (setting [5]) was 0.1 to 1 µM throughout. The IC50 in experiment [1] (setting [6]), in experiment [1] (setting [7]), in experiment [2] (setting [8]), in experiment [2] (setting [9]), in experiment [3] (setting [10]) and in experiment [4] (setting [11]) was 0.1 to 1 µM in each case.

In the case of `Oc1cc(-c2cn[nH]c2)ccc1-c1ccc(N2CCC(NC3CC3)C2)nn1` (stereo not drawn) [Compound 102, 2-(6-(3-(cyclopropylamino)pyrrolidin-1-yl)pyridazin-3-yl)-5-(1H-pyrazol-4-yl)phenol], the AC50 in experiment [1] (setting [13]) and in experiment [2] (setting [13]) was above 10 µM throughout. Further, the IC50 in experiment [1] (Table 3A, A673 or K562 cells, 24 h treatment, read-out: HTT CJ (IC50, decrease in CJ mRNA)) is above 10 µM; in experiment [1] (canonical junction (CJ) mRNA, RT-qPCR panel, Table 4A, read-out: HTT, decrease in CJ mRNA levels, IC50), above 10 µM; in experiment [2] (Table 3A, A673 or K562 cells, 24 h treatment, read-out: MYB CJ (IC50, decrease in CJ mRNA)) it was above 10 µM; in experiment [2] (canonical junction (CJ) mRNA, RT-qPCR panel, Table 4A, read-out: MYB, decrease in CJ mRNA levels, IC50), above 10 µM; in experiment [3] (canonical junction (CJ) mRNA, RT-qPCR panel, Table 4A, read-out: SMN2, decrease in CJ mRNA levels, IC50), 1 to 10 µM; in experiment [4] (canonical junction (CJ) mRNA, RT-qPCR panel, Table 4A, read-out: Target C, decrease in CJ mRNA levels, IC50), above 10 µM.

The term AC50 denotes the midpoint of the concentration-response curve, whichever way the signal moves. In general, IC50 refers to the concentration at which inhibition is half-maximal.

Source of the values: patent US20250333397A1 (REMIX THERAPEUTICS INC., priority 2021, published 2025).
